# Reference: patent publication US9994824B2, “Method for promoting hair growth using composition comprising PDGF-D treated adipose-derived stem cells” (INDUSTRY-ACADEMIC COOPERATION FOUNDATION, YONSEI UNIVERSITY, priority 2015, dated 2018)
# B1: PDGF-B: PDGF isoform growth factor protein, purchased from Sigma (protein, UniProt P01127 82-190, looked up)
# Platelet-derived growth …: SLGSLTIAEPAMIAECKTRTEVFEISRRLIDRTNANFLVWPPCVEVQRCSGCCNNRNVQCRPTQVQLRPVQVRKIEIVRKKPIFKKATVTLEDHLACKCETVAAARPVT
# Key:
# mitochondria of ASCs = test: mitochondrial fission (MitoTracker Red, confocal microscope); type: cell-based, human; settings: PDGF-D-treated ASCs plus inhibitor
# Method: ASCs were seeded on a round cover glass and treated with PDGF-D (10 ng/ml) for 24 hours. For mitochondrial staining, 500 nM MitoTracker Red (Molecular Probe, USA) was added to an α-MEM medium, and cells were incubated for 30 minutes, and then the morphology of mitochondria and MitoTracker Red fluorescence were examined using a confocal microscope (Carl Zeiss). In addition, for nuclear staining, cells were fixed with 4% paraformaldehyde for 15 minutes, permeabilized with 0.5% PBS-T for 5 minutes, and stained with DAPI (Sigma, USA) at room temperature for 10 minutes.
# ASCs [1] = test: cell proliferation assay (CCK-8 cell numbers); type: cell-based, human; settings: for proliferation of ASCs increased by PDGF-D, effect of inhibitor: inhibitor treatment of PDGF-D-treated ASCs
# Method: (§1) Human ASCs were obtained from a subcutaneous fat by liposuction according to a known method (Kim et al. J Dermatol Sci 53:96-102, 2009). ASCs were cultured in an α-MEM medium (Hyclone, Thermo Scientific) with 10% FBS (GIBCO, Invitrogen) and 1% penicillin/streptomycin (GIBCO) at 37° C. in 5% CO2, and cells at 7-9 passages were used. Positive expression of CD44, CD73, CD90, CD105, HLA-1 and PODXL and negative expression of CD34 and CD45 were examined by flow cytometry (Kim et al. Cell Death Dis 4:e588, 2013; Kim et al., Cell Biol Int 38:32-40, 2014), and multipotent differentiation potential for the cells to differentiate into adipocytes, osteocytes and cartilage cells was examined (Song et al. Stem Cells Dev 17:451-461, 2008).
# For cell proliferation assay, 7×10^3 of ASCs were seeded on 48-well plates, 24 hours later, a medium was transferred with a 0.2% FBS-containing α-MEM medium, and the following day, cells were treated with PDGF isoforms (10 ng/ml) for 48 hours. Afterward, the medium was removed, the cells were treated with a 10% CCK-8 solution for 2 hours using a CCK-8 assay kit (Dojindo, Japan), and the absorbance was measured at 450 nm, to examine cell numbers.
# ASCs [2] = test: cell migration assay (trans-well); type: cell-based, human; settings: for migration of ASCs increased by PDGF-D, effect of inhibitor: inhibitor treatment of PDGF-D-treated ASCs
# Method: as §1
# Also, for cell migration assay, 2×10^4/well of ASCs were seeded on the upper portion of a trans-well membrane plate (Corning, USA). After 2 hours, PDGF isoforms (10 ng/ml) and an α-MEM medium with 0.2% FBS were introduced to the lower portion of the trans-well membrane plate to culture the PDGF isoforms for 16 to 20 hours. Afterward, cells migrated to the trans-well membrane were fixed with cold ethanol for 20 minutes, and stained with 10% crystal-violet (Sigma, USA) at room temperature for 30 minutes.
# BCL2A1 = BCL2A1 mRNA expression (PCR array, qPCR); type: cell-based, human; settings: PDGF-D-treated ASCs plus inhibitor
# Method: (§2) In this example, PDGF-D target genes were examined using a human signaling pathwayfinder RT^2 profiler PCR array (signaling pathway: PAHS-041ZD).
# (§3) 2.5×10^5 of ASCs were seeded on 60-mm dishes, cultured in a 0.2% FBS-containing α-MEM medium, and treated with PDGF-D for 4-24 hours. Afterward, total RNA was extracted using an RNA extraction kit (RNeasy, Qiagen), cDNA was synthesized from 500 ng of total RNA by a cDNA synthesis kit (A3500, Promega) using 1,000 U reverse transcriptase and 50 ng/μl oligo(dT) primers. Gene expression was detected by a PCR array kit (Qiagen) according to the manufacturer's instructions, and qPCR was performed on a step one plus real-time PCR system (Applied Biosystems, Invitrogen) using a SYBR Green PCR master mix (Takara Bio, Japan).
# ROS generation in ASCs = test: intracellular ROS generation using DCF-DA; type: cell-based, human; settings: PDGF-D-treated ASCs plus inhibitor
# Method: ROS generation in cells were measured by a method using DCF-DA (Molecular probe, USA) (Kim et al., Stem Cells Dev 21:2212-2221, 2012; Kim et al., Stem Cells Dev 20:1753-1761, 2011), and mitochondrial ROS generation was measured using Mito-Sox (Molecular probe, USA). ASCs were seeded on 60-mm dishes, treated with PDGF-D (10 ng/ml) and 5 μM Mito-Sox and incubated in a dark place for 2 hours, and then flow cytometry was performed.
# SERPINE1 = SERPINE1 mRNA expression (PCR array, qPCR); type: cell-based, human; settings: PDGF-D-treated ASCs plus inhibitor
# Method: as §2, §3
# [3] = test system: growth factors VEGFA, FGF1, FGF5, BMP8B, LIF, INHBA, IL11 and HBEGF; test: growth factor expression (RT2 profiler PCR array of human growth factor, qPCR); type: cell-based
# Method: Then, the paracrine effect of PDGF families was examined using an RT^2 profiler PCR array of a human growth factor (growth factor pathway: PAHS-041ZA).
# The growth factor expression was measured by an RT^2 profiler PCR array (FIG. 9A).
Molecule,"proliferation of ASCs increased by PDGF-D, effect of inhibitor (ASCs [1])","migration of ASCs increased by PDGF-D, effect of inhibitor (ASCs [2])","BCL2A1 expression, effect of inhibitor (BCL2A1)","DCF-DA fluorescence, effect of inhibitor/scavenger (ROS generation in ASCs)","SERPINE1 expression, effect of inhibitor (SERPINE1)",also measured
COc1cc(-n2c(=S)[nH]c3ccccc3c2=O)c(Cl)cc1Cl [Mdivi-1],considerably decreased,considerably decreased,–,–,–,"mitochondrial fission induced by PDGF-D treatment, effect of inhibitor (mitochondria of ASCs): decreased"
CC1(C)CC(C(=O)OCCCCCCCCCC[P+](c2ccccc2)(c2ccccc2)c2ccccc2)C(C)(C)N1O (stereo not drawn) [Mito-CP],considerably decreased,considerably decreased,no influence,considerably decreased,considerably decreased,–
S=C(S)N1CCCC1 [PDTC],–,–,decreased,–,–,–
N#CC(=C(/N)Sc1ccccc1N)/C(C#N)=C(\N)Sc1ccccc1N [U0126],not influenced,not influenced,–,–,–,"expression of a growth factor induced by PDGF-D, effect of inhibitor (PCR array) ([3]; 10 μM inhibitor, RT2 profiler PCR array): inhibited; expression of the growth factor induced by PDGF-D, effect of inhibitor (qPCR) ([3]; qPCR): inhibited"
COCCOc1ccc2c(c1)ncn2-c1ccc2cccc(N3CCC(N)CC3)c2n1 [cp673451],–,–,decreased,considerably decreased,decreased,–
B1,–,–,–,–,–,"cell proliferation (cell numbers) (ASCs [1]; PDGF isoforms 10 ng/ml, 48 hours, 0.2% FBS α-MEM): considerably enhanced twice or more; cell migration (ASCs [2]; PDGF isoforms 10 ng/ml, 16 to 20 hours, 0.2% FBS α-MEM): considerably enhanced twice or more"
